Earlier results in US5688824A, “Use of leflunomide to prevent or control xenograft rejection” (priority 1996, dated 1997).
Like-named read-outs stand apart in the source and are kept apart here.

Test system: cardiac allografts, established acute rejection
Conditions: cited from earlier work; for mean survival time of the cardiac allografts: 7 days

Structure (SMILES): Cc1oncc1C(=O)Nc1ccc(C(F)(F)F)cc1 [leflunomide, N-(4-trifluoromethylphenyl)-5-methylisoxazol-4-carboxamide]
- prolongation of survival (5 mg/kg by gavage, 7- or 14-day course from day of transplantation): approximately equal prolongations of survival
- mononuclear leukocyte infiltration (started at day 4): completely cleared the mononuclear leukocyte infiltration on histological analysis
- mean survival time of the cardiac allografts (started at day 4 post-transplantation): 25.4±1.4 days
- mean survival time of the cardiac allografts (started at day 6 post-transplantation): 16.3±8.5 days
- allospecific IgG response (started day 4): The generation of allospecific IgG response was inhibited
- allospecific cytotoxic antibody production (primarily IgM) (started day 4): abrupt drop to near background levels after 7 days of treatment
- reversal of acute rejection (therapy post-transplantation): effective in reversing acute rejection as determined by both functional and histological criteria
